This note sets out measurements from ChEMBL document CHEMBL3508693 (2016).

The structures appear in SMILES notation.

The nature of series [1]: Oral clearance of SPP100 following single oral dose of SPP100 75 mg capsule studied in healthy human. In kind it is ADME, organism-based. The following applies: plasma.
The target in series [2] is CYP2C19 (Homo sapiens, UniProt P33261). Kind of series: Inhibitory activity of 20 uM SPP100 on 1174 Pmoles of cDNA-derived CYP2C19 enzyme in microsome prepared from human lymphoblastoid cell line. Particulars: probe (S)-mephenytoin. In kind it is ADME, microsomes. The arrangement: conc 20 uM, interact cpd conc 50 uM.
Sequence of CYP2C19 (P33261 whole entry): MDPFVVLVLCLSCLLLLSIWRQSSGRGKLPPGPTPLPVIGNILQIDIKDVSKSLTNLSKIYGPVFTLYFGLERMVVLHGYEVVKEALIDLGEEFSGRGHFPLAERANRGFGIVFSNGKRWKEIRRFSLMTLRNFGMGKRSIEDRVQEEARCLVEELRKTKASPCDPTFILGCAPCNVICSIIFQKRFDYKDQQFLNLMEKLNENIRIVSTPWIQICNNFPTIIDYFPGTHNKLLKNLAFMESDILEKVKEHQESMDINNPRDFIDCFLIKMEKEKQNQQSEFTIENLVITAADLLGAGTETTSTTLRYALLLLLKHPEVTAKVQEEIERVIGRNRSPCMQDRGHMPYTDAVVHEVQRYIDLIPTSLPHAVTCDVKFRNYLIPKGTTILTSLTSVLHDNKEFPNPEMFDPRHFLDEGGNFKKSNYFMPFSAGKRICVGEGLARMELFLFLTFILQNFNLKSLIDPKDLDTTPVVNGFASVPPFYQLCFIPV
For series [3], the target named is CYP3A4 (Homo sapiens, UniProt P08684). Kind of series: Inhibitory activity of 200 µM SPP100 on cDNA-derived CYP3A4 enzyme in microsome prepared from human lymphoblastoid cell line. In kind it is ADME, microsomes. The arrangement: conc 200 uM, interact cpd conc 120 uM. The following applies: probe testosterone (120 uM).
Sequence of CYP3A4 (P08684 whole entry): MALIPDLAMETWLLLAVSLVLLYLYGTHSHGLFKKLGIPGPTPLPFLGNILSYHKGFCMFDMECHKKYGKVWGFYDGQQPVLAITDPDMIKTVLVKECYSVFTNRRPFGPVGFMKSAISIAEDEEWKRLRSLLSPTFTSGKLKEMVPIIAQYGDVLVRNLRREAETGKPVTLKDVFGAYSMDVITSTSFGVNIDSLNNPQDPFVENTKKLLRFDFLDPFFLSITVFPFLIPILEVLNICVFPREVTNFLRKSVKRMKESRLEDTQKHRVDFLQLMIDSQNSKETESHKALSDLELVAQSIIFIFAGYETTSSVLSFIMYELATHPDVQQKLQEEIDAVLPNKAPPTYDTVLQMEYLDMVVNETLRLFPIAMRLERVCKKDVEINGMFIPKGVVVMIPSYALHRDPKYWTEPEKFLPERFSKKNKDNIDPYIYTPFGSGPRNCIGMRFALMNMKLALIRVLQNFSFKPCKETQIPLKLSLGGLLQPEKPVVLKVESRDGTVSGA
Series [4] in a line: % SPP100 in urine following single oral dose of 300 mg [14C]SPP100 studied in healthy men. In kind it is ADME, organism-based. The following applies: human, in vivo, at 300 mg.
Series [5] can be described thus: Oral clearance of SPP100 following single oral dose of SPP100 600 mg capsule studied in healthy human. The class given is ADME, organism-based. Particulars: plasma.
In series [6] the target is T1, CYP2A6 (Homo sapiens, UniProt P11509).
T1 sequence (P11509 whole entry): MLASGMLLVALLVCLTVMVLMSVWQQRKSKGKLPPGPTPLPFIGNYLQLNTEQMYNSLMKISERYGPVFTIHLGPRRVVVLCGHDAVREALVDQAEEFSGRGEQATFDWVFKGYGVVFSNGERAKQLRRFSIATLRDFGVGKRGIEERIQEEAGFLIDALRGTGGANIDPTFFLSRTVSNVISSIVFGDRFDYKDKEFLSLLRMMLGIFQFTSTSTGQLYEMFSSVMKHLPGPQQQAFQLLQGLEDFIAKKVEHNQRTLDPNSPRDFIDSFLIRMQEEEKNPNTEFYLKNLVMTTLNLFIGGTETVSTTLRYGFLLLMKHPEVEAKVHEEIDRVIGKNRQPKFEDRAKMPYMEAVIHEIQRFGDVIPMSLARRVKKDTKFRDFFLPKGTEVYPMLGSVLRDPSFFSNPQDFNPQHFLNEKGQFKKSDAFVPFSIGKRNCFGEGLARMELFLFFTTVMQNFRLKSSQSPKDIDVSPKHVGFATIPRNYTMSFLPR
Kind of series: Inhibitory activity of 200 uM SPP100 on 37 Pmoles of cDNA-derived CYP2A6 enzyme in microsome prepared from human lymphoblastoid cell line. The class given is ADME, microsomes. The arrangement: conc 200 uM, interact cpd conc 3 uM. The following applies: probe coumarine.

Series [7] in a line: % SPP100 (0-72h) recovered in faeces following single oral dose of [14C] aliskiren hemifumarate at 3 mg.Kg-1 level in marmoset. The class given is ADME, organism-based, Callithrix jacchus, Feces. Particulars: in vivo.
A short description of series [8]: Plasma clearance (0-96h) of total radioactivity following oral administration of [14C] aliskiren hemifumarate at 100 mg.Kg-1 level in rat. Particulars: in vivo, iv. The class given is ADME, organism-based, Albino HAN:WIST.
Series [9] in a line: Biliary elimination of aliskiren following single oral dose of [14C] aliskiren hemifumarate at 500 mg.Kg-1 level in mouse. In kind it is ADME, organism-based, TgRasH2, Bile. Particulars: in vivo.
Series [10] can be described thus: Concentration of radioactivity in the liver following repeated oral administration of [14C] aliskiren hemifumarate at 100 mg.Kg-1 level studied at 2h after 7th dose in rat. Particulars: in vivo. The class given is ADME, organism-based, Albino HAN:WIST.
Series [11] is described as follows: AUC (0-96 or 0-168h) of total radioactivity following single intravenous administration of [14C] aliskiren hemifumarate at 1 mg.Kg-1 level in marmoset. The class given is ADME, organism-based, Callithrix jacchus, Plasma. Particulars: in vivo.
The nature of series [12]: Cmax of radioactivity following repeated oral administration of [14C] aliskiren hemifumarate at 100 mg.Kg-1 level studied after 2h of dosing on day 10 in rat. The class given is ADME, organism-based, Albino HAN:WIST. Particulars: in vivo, read-out: Cmax(10).
Series [13] can be described thus: Excretion of radioactivity (48-72h) in urine following single intravenous dose of 10 mg.Kg-1 [14C] aliskiren hemifumarate in rat. In kind it is ADME, organism-based, Albino HAN:WIST. The following applies: in vivo.
Series [14] can be described thus: Tmax of [14C] aliskiren hemifumarate following single intravenous dose of [14C] aliskiren hemifumarate at 10 mg.Kg-1 level in mouse. In kind it is ADME, organism-based, TgRasH2, Plasma. Particulars: in vivo.
Series [15] in a line: Concentration of radioactivity in the liver following repeated oral administration of [14C] aliskiren hemifumarate at 100 mg.Kg-1 level studied at 2h after 10th dose in rat. The class given is ADME, organism-based, Albino HAN:WIST. The following applies: in vivo.
Series [16] can be described thus: Excretion of radioactivity (0-24h) in urine following single oral dose of 100 mg.Kg-1 [14C] aliskiren hemifumarate in rat. The class given is ADME, organism-based, Albino HAN:WIST. Particulars: in vivo.
The nature of series [17]: Tmax of aliskiren hemifumarate following 2 week oral dosing of aliskiren hemifumarate at 50 mg.Kg-1 level studied on day 14 in female Callithrix jacchus. The class given is ADME, organism-based. The following applies: marmoset, plasma.
Series [18] can be described thus: Tmax of aliskiren hemifumarate following 8 day once-daily dosing of SPP100B oral solution at 40 mg level studied on day 8 in men. The class given is ADME, organism-based. The following applies: male, human, plasma.
Series [19] is described as follows: Blood clearance (0-168h) of unlabeled aliskiren hemifumarate following single intravenous administration of aliskiren hemifumarate at 1 mg.Kg-1 level in marmoset. In kind it is ADME, organism-based, Callithrix jacchus. Particulars: in vivo.
The nature of series [20]: AUC(0-24h) of aliskiren hemifumarate following 2 week oral dosing of aliskiren hemifumarate at 100 mg.Kg-1 level studied on day 1 in female Callithrix jacchus. The class given is ADME, organism-based. Particulars: marmoset, plasma.
A short description of series [21]: AUC of aliskiren hemifumarate following 8 day once-daily dosing of SPP100B oral solution at 40 mg level studied on day 8 in men. The class given is ADME, organism-based. The following applies: male, human, plasma.
Series [22] can be described thus: Effect of 4 week oral dietary dosing of aliskiren hemifumarate at 500 mg.Kg-1 level on spermatogenesis in male mouse. In kind it is toxicity, organism-based, CB6F1-TGrasH2, Testis. The following applies: in vivo, 672 h.
Series [23] deals with hERG (KCNH2) (Homo sapiens, UniProt Q12809). Kind of series: Effects of 100 uM aliskiren hemifumarate on current through cloned hERG channel expressed in human embryonic kidney cell. The class given is cell-based. Details: conc 100 uM, dose level Intermediate. The following applies: HEK293 cells that express cloned hERG channel, read-out: Inhibitory activity.
Sequence of hERG (KCNH2) (Q12809 whole entry): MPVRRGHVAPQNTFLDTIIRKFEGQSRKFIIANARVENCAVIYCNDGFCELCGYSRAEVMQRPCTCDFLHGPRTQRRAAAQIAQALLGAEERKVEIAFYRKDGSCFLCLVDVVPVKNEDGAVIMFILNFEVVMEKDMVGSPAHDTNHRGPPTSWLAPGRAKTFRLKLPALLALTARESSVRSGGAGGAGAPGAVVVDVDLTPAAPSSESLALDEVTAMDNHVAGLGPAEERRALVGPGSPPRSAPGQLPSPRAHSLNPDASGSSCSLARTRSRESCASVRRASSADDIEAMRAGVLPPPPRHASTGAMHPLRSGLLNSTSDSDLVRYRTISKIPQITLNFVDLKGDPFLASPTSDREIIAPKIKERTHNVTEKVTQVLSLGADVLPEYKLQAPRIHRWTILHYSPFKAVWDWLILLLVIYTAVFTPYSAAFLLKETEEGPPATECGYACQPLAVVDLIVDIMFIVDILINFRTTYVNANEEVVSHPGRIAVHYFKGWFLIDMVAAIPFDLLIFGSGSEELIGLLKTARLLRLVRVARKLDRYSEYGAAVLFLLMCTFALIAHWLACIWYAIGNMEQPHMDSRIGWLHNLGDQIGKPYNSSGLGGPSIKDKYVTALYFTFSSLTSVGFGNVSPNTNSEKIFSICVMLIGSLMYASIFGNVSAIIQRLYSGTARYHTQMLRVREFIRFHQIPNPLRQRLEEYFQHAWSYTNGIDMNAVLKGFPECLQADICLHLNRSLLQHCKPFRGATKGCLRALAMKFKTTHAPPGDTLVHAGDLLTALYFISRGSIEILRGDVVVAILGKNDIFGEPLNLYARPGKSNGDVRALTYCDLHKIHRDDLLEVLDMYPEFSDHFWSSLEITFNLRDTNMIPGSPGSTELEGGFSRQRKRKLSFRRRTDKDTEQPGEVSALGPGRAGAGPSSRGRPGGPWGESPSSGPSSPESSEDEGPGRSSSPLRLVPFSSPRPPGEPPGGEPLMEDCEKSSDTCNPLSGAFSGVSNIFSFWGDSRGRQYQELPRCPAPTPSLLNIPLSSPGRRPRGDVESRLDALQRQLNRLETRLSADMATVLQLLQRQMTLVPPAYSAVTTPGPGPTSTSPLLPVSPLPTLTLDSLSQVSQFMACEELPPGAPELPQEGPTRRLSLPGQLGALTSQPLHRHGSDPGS
Series [24] in a line: Tmax of aliskiren hemifumarate following 2 week oral dosing of aliskiren hemifumarate at 100 mg.Kg-1 level studied on day 1 in male Callithrix jacchus. Particulars: marmoset, plasma. In kind it is ADME, organism-based.
A short description of series [25]: Effect of 4 week oral dietary dosing of aliskiren hemifumarate at 2000 mg.Kg-1 level on histopathology of corpora lutea in female mouse. Particulars: in vivo, 672 h. In kind it is toxicity, organism-based, CB6F1-TGrasH2, Corpus luteum.
A short description of series [26]: Cmax of aliskiren hemifumarate following 2 week oral dosing of aliskiren hemifumarate at 50 mg.Kg-1 level studied on day 14 in female Callithrix jacchus. In kind it is ADME, organism-based. Particulars: marmoset, plasma.
Series [27] can be described thus: AUCspec of aliskiren hemifumarate following 2 week oral dosing of aliskiren hemifumarate at 100 mg.Kg-1 level studied on day 1 in female Callithrix jacchus. Particulars: marmoset, in vivo, 336 h. In kind it is ADME, organism-based, Plasma.
Series [28] is described as follows: AUC(0-24h) of aliskiren hemifumarate following 2 week oral dosing of aliskiren hemifumarate at 10 mg.Kg-1 level studied on […] in male Callithrix jacchus. The class given is ADME, organism-based. Particulars: marmoset, plasma.
Series [29] in a line: AUC of aliskiren hemifumarate following single dosing of SPP100B oral solution at 40 mg level studied on day 1 in men. The class given is ADME, organism-based. Particulars: male, human, plasma.
Series [30] can be described thus: Tmax of aliskiren hemifumarate following 2 week oral dosing of aliskiren hemifumarate at 10 mg.Kg-1 level studied on day 1 in male Callithrix jacchus. The following applies: marmoset, plasma. In kind it is ADME, organism-based.
Series [31] can be described thus: AUC(0-24h) of aliskiren hemifumarate following 2 week oral dosing of aliskiren hemifumarate at 100 mg.Kg-1 level studied on day 14 in male Callithrix jacchus. The class given is ADME, organism-based. The following applies: marmoset, plasma.
A short description of series [32]: Effect of 2 week oral dosing of aliskiren hemifumarate at 10 mg.Kg-1 level on hematological parameter values in female Callithrix jacchus. The class given is toxicity, organism-based, Plasma. Particulars: marmoset, in vivo, 336 h.
Series [33] can be described thus: AUC (0-24h)/dose of aliskiren hemifumarate following 4 week oral dietary dosing of aliskiren hemifumarate at 1500 mg.Kg-1 level in female mouse. The class given is ADME, organism-based, CB6F1-TGrasH2, Plasma. The following applies: in vivo.

For `COCCCOc1cc(C[C@@H](C[C@H](N)[C@@H](O)C[C@H](C(=O)NCC(C)(C)C(N)=O)C(C)C)C(C)C)ccc1OC`, the values for the CL/F in series [1] and in series [5] were 4900 mL/min and 3700 mL/min, respectively. In addition, the inhibition at 20 µM in series [2] is -1.5%. Moreover, the inhibition at 200 µM in [3] was 11%; in series [6], 2.6%. In addition, the Compound recovery came out at 0.4% in series [4] and 78% in [7].

In the case of `COCCCOc1cc(C[C@@H](C[C@H](N)[C@@H](O)C[C@H](C(=O)NCC([14CH3])([14CH3])C(N)=O)C(C)C)C(C)C)ccc1OC.O=C(O)/C=C/C(=O)O`, the Plasma clearance in [8] is 1.28 L·h/kg. The Radiolabel recovery entry is on record as “OUTCOME = Observed, VALUE = Elimination of aliskiren occurred mainly via the biliary or faecal route” in series [9]; “OUTCOME = Detected” in series [10]; 16.2% in series [13]; “OUTCOME = Detected” in series [15]; 0.47% in series [16]. Further, the AUC (as a rule, the area under the concentration-time curve, a measure of exposure) in [11] came to 52.92 µM·h. The Cmax (in general, the highest concentration seen after dosing) in [12] was 473 nM. Besides, the time to peak (Tmax) (in general, the time at which the peak concentration occurs) in series [14] is 4.98 min.

Consider `COCCCOc1cc(C[C@@H](C[C@H](N)[C@@H](O)C[C@H](C(=O)NCC(C)(C)C(N)=O)C(C)C)C(C)C)ccc1OC.COCCCOc1cc(C[C@@H](C[C@H](N)[C@@H](O)C[C@H](C(=O)NCC(C)(C)C(N)=O)C(C)C)C(C)C)ccc1OC.O=C(O)/C=C/C(=O)O` [ALISKIREN FUMARATE], for which the time to peak (Tmax) in [17] amounted to 1 h; in series [18] it was 2.1 h; in [24] it was 1 h; in [30] it was 1 h. In series [19], this compound had a Blood clearance of 0.055 L·h/kg. In series [20], the AUC(0-t) (usually the area under the concentration-time curve up to a stated or last time point) at 24 h was found to be 84000 ng·h/mL. This compound also yielded an AUC at 192 h in series [21] of 46.7 ng·h/mL. Further, the Change in spermatogenesis result in [22] is “OUTCOME = No abnormalities. No animals died during the study”. For the same compound, the inhibition at 100 µM in [23] came out at 6%. Besides, the “Change in corpora lutea” value in [25] is recorded as “OUTCOME = Absence of corpora lutea. No animals died during the study”. Besides, the Cmax in series [26] is 10100 ng/mL. The AUC normalised is recorded as 0.84 ((ug.h.ml-1)/(mg/kg) in series [27] and 3.65 ((ng/mL).hours)/(mg/kg/day) in series [33]. For the same compound, the AUC at 24 h in series [28] was 33900 ng·h/mL; in series [31], 109000 ng·h/mL. In [29], this compound displayed an AUC of 28.5 ng·h/mL. For the same compound, the Change in hematology entry in [32] is on record as “OUTCOME = Hematological parameter values did not differ from control values. No animals died during the study”.
